15 compounds from patent US20180099931A1 (AbbVie S.à.r.l., priority 2016, published 2018) can be followed below.

As usually defined, the EC50 is the concentration giving half of the maximal effect.

Where two headings read alike, the source gives them in different places.

The assay concerns the target T1, F508delCFTR (Homo sapiens, UniProt P13569, DEL508-508).
T1 construct: expressed in transfected cells; host or cells: CFBE41o- human lung-derived epithelial cells (CFBE4lo-F508delCFTR-HRP), doxycycline-inducible
Nature of the assay: Cell Surface Expression-Horse Radish Peroxidase (CSE-HRP) Assay.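 For Maximum % activity (with co-corrector): co-corrector and positive control are both the same reference corrector at 2 µM.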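 For Maximum % activity (without co-corrector): percent of the 2 µM on-plate positive control corrector response above DMSO.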 The following applies: for Emax / Maximum % activity (with co-corrector) / Maximum % activity (without co-corrector): maximum at any tested concentration, normalized to on-plate positive control; for Emax: read-out: Maximum % activity (without co-corrector). It counts as cell-based.

The mark [1] stands for this setting: test compound without co-corrector.
The mark [2] stands for this setting: test compound without co-corrector, read-out: EC50 (without co-corrector).
The mark [3] stands for this setting: with co-corrector (2 μM of 3-[(2R,4R)-4-({[1-(2,2-difluoro-1,3-benzodioxol-5-yl)cyclopropyl]carbonyl}amino)-7-methoxy-3,4-dihydro-2H-chromen-2-yl]benzoic acid).
Where [4] appears, read: with co-corrector (2 μM of 3-[(2R,4R)-4-({[1-(2,2-difluoro-1,3-benzodioxol-5-yl)cyclopropyl]carbonyl}amino)-7-methoxy-3,4-dihydro-2H-chromen-2-yl]benzoic acid), read-out: EC50 (with co-corrector).

T1 sequence (P13569 with tags, fused parts or gaps DEL508-508): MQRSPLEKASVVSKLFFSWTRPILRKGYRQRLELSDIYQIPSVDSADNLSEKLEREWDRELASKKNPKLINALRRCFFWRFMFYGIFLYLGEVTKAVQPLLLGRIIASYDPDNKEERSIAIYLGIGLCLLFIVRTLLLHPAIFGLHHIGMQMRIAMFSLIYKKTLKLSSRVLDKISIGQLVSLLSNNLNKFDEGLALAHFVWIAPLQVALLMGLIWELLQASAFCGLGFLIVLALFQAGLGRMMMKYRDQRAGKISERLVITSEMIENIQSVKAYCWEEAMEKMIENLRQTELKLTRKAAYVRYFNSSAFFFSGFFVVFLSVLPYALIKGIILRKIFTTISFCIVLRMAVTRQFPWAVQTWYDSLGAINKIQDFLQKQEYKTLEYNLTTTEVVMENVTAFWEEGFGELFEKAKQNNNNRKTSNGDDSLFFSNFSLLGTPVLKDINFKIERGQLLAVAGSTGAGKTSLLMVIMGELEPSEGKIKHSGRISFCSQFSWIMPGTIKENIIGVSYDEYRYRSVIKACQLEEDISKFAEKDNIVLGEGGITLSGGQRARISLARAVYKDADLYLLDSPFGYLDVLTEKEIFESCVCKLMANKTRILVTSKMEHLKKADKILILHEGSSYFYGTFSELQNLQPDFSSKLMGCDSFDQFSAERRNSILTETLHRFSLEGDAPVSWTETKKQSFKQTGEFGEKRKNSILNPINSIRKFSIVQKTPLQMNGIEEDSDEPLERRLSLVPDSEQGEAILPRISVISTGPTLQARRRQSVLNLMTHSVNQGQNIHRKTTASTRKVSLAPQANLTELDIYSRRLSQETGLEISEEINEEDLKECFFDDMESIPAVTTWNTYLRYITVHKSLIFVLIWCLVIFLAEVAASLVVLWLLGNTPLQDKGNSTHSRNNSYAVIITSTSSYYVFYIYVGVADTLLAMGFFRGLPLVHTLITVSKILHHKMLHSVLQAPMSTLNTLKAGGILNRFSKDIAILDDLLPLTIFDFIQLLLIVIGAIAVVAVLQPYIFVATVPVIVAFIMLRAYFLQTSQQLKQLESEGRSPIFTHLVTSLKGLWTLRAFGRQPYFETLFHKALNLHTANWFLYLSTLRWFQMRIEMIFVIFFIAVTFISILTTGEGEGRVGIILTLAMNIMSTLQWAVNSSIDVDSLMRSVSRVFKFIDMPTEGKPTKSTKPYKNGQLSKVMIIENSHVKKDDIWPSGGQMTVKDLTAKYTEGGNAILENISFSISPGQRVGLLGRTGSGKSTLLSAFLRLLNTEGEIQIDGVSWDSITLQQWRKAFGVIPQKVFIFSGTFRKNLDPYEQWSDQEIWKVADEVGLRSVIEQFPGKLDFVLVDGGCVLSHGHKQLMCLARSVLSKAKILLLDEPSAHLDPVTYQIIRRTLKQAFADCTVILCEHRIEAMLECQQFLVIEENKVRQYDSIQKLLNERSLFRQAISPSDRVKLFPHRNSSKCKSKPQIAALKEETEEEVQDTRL

In the case of `COc1ccc(C(C)(C)C)cc1CN[C@H]1[C@H](C(C)(C)C)[C@@H](C(=O)O)N(C(=O)[C@H]2[C@H](C(F)(F)F)[C@H]3CC[C@@H]2O3)[C@H]1c1ccccc1` (relative stereo) [II-506], the Emax under setting [1] is more than 200%. Besides, the EC50 under setting [2] lay within 1000 to 10000 nM and the 50% effective concentration (EC50) under setting [4] is less than 1000 nM. Further, the “Maximum % activity (with co-corrector)” value under setting [3] is reported as “+++ (≥350)”.

Consider `COc1ccc(C(C)(C)C)cc1CN[C@H]1[C@H](C(C)(C)C)[C@@H](C(=O)O)N(C(=O)[C@@H]2[C@@H](C(F)(F)F)[C@@H]3CC[C@H]2O3)[C@H]1c1ccccc1OC(F)F` (relative stereo) [II-507], for which the Emax under setting [1] lay within 100 to 200%. Also, the EC50 was less than 1000 nM under setting [2] and less than 1000 nM under setting [4]. Also, the “Maximum % activity (with co-corrector)” value under setting [3] is listed as “+++ (≥350)”.

In the case of `COc1ccc(C(C)(C)C)cc1CN[C@H]1[C@H](C(C)(C)C)[C@@H](C(=O)O)N(C(=O)[C@@H]2C[C@H]3CC[C@@H]2O3)[C@H]1c1cccnc1OC` (relative stereo) [II-522], under setting [1], the Emax is less than 100%. The concentration for a half-maximal effect (EC50) runs as follows: under setting [2], 1000 to 10000 nM; under setting [4], 1000 to 10000 nM. In addition, the “Maximum % activity (with co-corrector)” value under setting [3] was “+++ (≥350)”.

With `COc1cccc([C@H]2[C@@H](NCc3cc(C(F)(F)F)ccc3OC)[C@H](C(C)(C)C)[C@@H](C(=O)O)N2C(=O)C2(C)CCCOC2)n1` (relative stereo) [III-70], the Emax under setting [1] was less than 100%. Also, the EC50 reads like this: under setting [2], more than 10000 nM; under setting [4], 1000 to 10000 nM. In addition, the “Maximum % activity (with co-corrector)” value under setting [3] was “++ (≥150 and <350)”.

Take `COc1ccc(C(F)(F)F)cc1CN[C@@H]1[C@@H](C(C)(C)C)[C@H](C(=O)O)N(C(=O)C(OC)c2ccccc2)[C@@H]1c1cccnc1N(C)C` (relative stereo) [III-88]: the Emax under setting [1] is less than 100%. Moreover, the concentration giving a half-maximal response (EC50) runs as follows: under setting [2], more than 10000 nM; under setting [4], 1000 to 10000 nM. Moreover, the “Maximum % activity (with co-corrector)” value under setting [3] was “++ (≥150 and <350)”.

In the case of `COc1ccc(C(C)(C)C)cc1CN[C@H]1[C@H](C(C)(C)C)[C@@H](C(=O)O)N(C(=O)C2Cc3ccccc3O2)[C@H]1c1ccccc1` (single isomer, unassigned) [Example 28, (2S,3S,4S,5S)-3-tert-butyl-4-{[(5-tert-butyl-2-methoxyphenyl)methyl]amino}-1-[(2S*)-2,3-dihydro-1-benzofuran-2-carbonyl]-5-phenylpyrrolidine-2-carboxylic acid], the half-maximal effective concentration (EC50) under setting [2] is less than 1000 nM and the EC50 under setting [4] was less than 1000 nM. In addition, where the note is “with co-corrector (2 μM)”, the “Maximum % activity (with co-corrector)” value is reported as “+++ (≥350)”. The Emax (without co-corrector) is more than 200%.

Regarding `COc1ccc(C(C)(C)C)cc1CN[C@H]1[C@H](C(C)(C)C)[C@@H](C(=O)O)N(C(=O)C2Cc3ccccc3O2)[C@H]1c1cccnc1N(C)C` (single isomer, unassigned) [Example 36, (2S,3S,4S,5S)-3-tert-butyl-4-{[(5-tert-butyl-2-methoxyphenyl)methyl]amino}-1-[(2S*)-2,3-dihydro-1-benzofuran-2-carbonyl]-5-[2-(dimethylamino)pyridin-3-yl]pyrrolidine-2-carboxylic acid], the EC50 is, setting by setting: under setting [2], less than 1000 nM; under setting [4], less than 1000 nM. For the same compound, the “Maximum % activity (with co-corrector)” value (with co-corrector (2 μM)) was “+++ (≥350)”. The Emax (without co-corrector) lay within 100 to 200%.

As to `COc1ccc(C2(C(F)(F)F)CC2)cc1CN[C@H]1[C@H](C(C)(C)C)[C@@H](C(=O)O)N(C(=O)C2Cc3ccccc3O2)[C@H]1c1cccnc1N(C)C` (single isomer, unassigned) [Example 37, (2S,3S,4S,5S)-3-tert-butyl-1-[(2R*)-2,3-dihydro-1-benzofuran-2-carbonyl]-5-[2-(dimethylamino)pyridin-3-yl]-4-[({2-methoxy-5-[1-(trifluoromethyl)cyclopropyl]phenyl}methyl)amino]pyrrolidine-2-carboxylic acid], the half-maximal effective concentration (EC50) is, setting by setting: under setting [2], less than 1000 nM; under setting [4], less than 1000 nM. Further, for the setting “with co-corrector (2 μM), 2 µM”, the “Maximum % activity (with co-corrector)” value was “++ (≥150 and <350)”. Further, where the note is “without co-corrector”, the “Maximum % activity (without co-corrector)” value is listed as “+ (<100)”.

With `COc1ccc(C(C)(C)C)cc1CN[C@H]1[C@H](C(C)(C)C)[C@@H](C(=O)O)N(C(=O)C2CCCC(F)(F)C2)[C@H]1c1cccnc1N(C)C` (single isomer, unassigned) [Example 42, (2S,3S,4S,5S)-3-tert-butyl-4-{[(5-tert-butyl-2-methoxyphenyl)methyl]amino}-1-[(1R*)-3,3-difluorocyclohexane-1-carbonyl]-5-[2-(dimethylamino)pyridin-3-yl]pyrrolidine-2-carboxylic acid], the EC50 under setting [2] was less than 1000 nM and the concentration for a half-maximal effect (EC50) under setting [4] was less than 1000 nM. Also, for the setting “with co-corrector (2 μM)”, the “Maximum % activity (with co-corrector)” value is reported as “+++ (≥350)”. Under “without co-corrector”, the Emax was more than 200%.

Regarding `COc1ccc(C(C)(C)C)cc1CN[C@H]1[C@H](C(C)(C)C)[C@@H](C(=O)O)N(C(=O)C2CCc3ccccc3O2)[C@H]1c1cccnc1N(C)C` (single isomer, unassigned) [Example 43, (2S,3S,4S,5S)-3-tert-butyl-4-{[(5-tert-butyl-2-methoxyphenyl)methyl]amino}-1-[(2S*)-3,4-dihydro-2H-1-benzopyran-2-carbonyl]-5-[2-(dimethylamino)pyridin-3-yl]pyrrolidine-2-carboxylic acid], the concentration giving a half-maximal response (EC50) under setting [2] is 1000 to 10000 nM and the EC50 under setting [4] is less than 1000 nM. Also, the “Maximum % activity (with co-corrector)” value (with co-corrector (2 μM)) is “+++ (≥350)”. Under “without co-corrector”, the Emax lay in the range of 100 to 200%.

With `COc1ccc(C(C)(C)C)cc1CN[C@H]1[C@H](C(C)(C)C)[C@@H](C(=O)O)N(C(=O)C2CCCC(F)(F)C2)[C@H]1c1cccnc1N(C)C` (single isomer, unassigned) [Example 44, (2S,3S,4S,5S)-3-tert-butyl-4-{[(5-tert-butyl-2-methoxyphenyl)methyl]amino}-1-[(1S*)-3,3-difluorocyclohexane-1-carbonyl]-5-[2-(dimethylamino)pyridin-3-yl]pyrrolidine-2-carboxylic acid], the EC50 was 1000 to 10000 nM under setting [2] and less than 1000 nM under setting [4]. For the same compound, the “Maximum % activity (with co-corrector)” value (with co-corrector (2 μM)) is listed as “+++ (≥350)”. In addition, the “Maximum % activity (without co-corrector)” value (without co-corrector) is “+++ (≥200)”.

In the case of `COc1ccc(C(C)(C)C)cc1CN[C@H]1[C@H](C(C)(C)C)[C@@H](C(=O)O)N(C(=O)C2CCc3ccccc3O2)[C@H]1c1ccccc1` (single isomer, unassigned) [Example I-83], the EC50 is 1000 to 10000 nM under setting [2] and 1000 to 10000 nM under setting [4]. In addition, the “Maximum % activity (with co-corrector)” value (with co-corrector (2 μM)) is given as “+++ (≥350)”. The Emax (without co-corrector) was in the range of 100 to 200%.

On to `COc1ccc(C(C)(C)C)cc1CN[C@H]1[C@H](C(C)(C)C)[C@@H](C(=O)O)N(C(=O)C(OC)C2CC2)[C@H]1c1ccccc1` (single isomer, unassigned) [Example I-95], for which the EC50 under setting [2] fell in the range of 1000 to 10000 nM and the EC50 under setting [4] is 1000 to 10000 nM. For the same compound, the “Maximum % activity (with co-corrector)” value (with co-corrector (2 μM)) is “+++ (≥350)”. Further, the Emax (without co-corrector) is more than 200%.

`COc1ccc(C(C)(C)C)cc1CN[C@H]1[C@H](C(C)(C)C)[C@@H](C(=O)O)N(C(=O)C(OC)C2CC2)[C@H]1c1ccccc1` (single isomer, unassigned) [Example I-96]: the EC50 under setting [2] was in the range of 1000 to 10000 nM. Moreover, the “Maximum % activity (with co-corrector)” value (with co-corrector (2 μM)) is “+++ (≥350)”.

As for `COc1ccc(C(C)(C)C)cc1CN[C@H]1[C@H](C(C)(C)C)[C@@H](C(=O)O)N(C(=O)C2Cc3ccccc3O2)[C@H]1c1cccnc1OC` (single isomer, unassigned) [Example I-165], the EC50 by setting is: under setting [2], less than 1000 nM; under setting [4], less than 1000 nM. The “Maximum % activity (with co-corrector)” value (with co-corrector (2 μM)) is given as “+++ (≥350)”. Besides, the Emax (without co-corrector) was 100 to 200%.
